Laboratory results: US12624068B2, “Exon skipping by peptide nucleic acid derivatives” (OliPass Corporation, priority 2016, dated 2026)
[C(1O2)] = modified PNA monomer acting as cytosine, C(pOq) type, 1O2; [A(5)] = modified PNA monomer acting as adenine, A(p) type, p=5; [G(5)] = modified PNA monomer acting as guanine, G(p) type, p=5; [G(6)] = modified PNA monomer acting as guanine, G(p) type, p=6; {Fethoc} = N-terminal Fethoc cap; {NH2} = C-terminal amide

Tests used:
[1] = tested on: sodium ion current in rat DRG cells; assay: CoroNa assay of sodium current in rat L5 DRG neuronal cells; assay type: cell-based; details: rat L5 DRG cells without L5/L6 ligation, 30 hrs
Procedure: “SCN-ASO 27” was evaluated for its ability to inhibit the sodium ion current in rat DRG (dorsal root ganglion) cells using “CoroNa Green” as follows.
[SNL Surgery by L5/L6 Ligation] In Day 0, 6 weeks old male SD rats were anesthetized with zoletil/rompun. Then the L5 and L6 spinal nerve (left side) were exposed and tightly ligated. The muscle and skin were closed and clipped by due aseptic procedures. The rats were sporadically sensitized by von Frey scoring over a period of 4 weeks.
[Preparation of DRG Neuronal Cells] In Day 31, a rat showing a low von Frey score was sacrificed to extract both the left (ligated side) and the right (non-ligated side) DRG. […]
[ASO Treatment & CoroNa Assay] […] The culture dish was mounted on a fluorescence microscope equipped with a CCD camera to continuously capture the green fluorescent images of the cells. The cells were acutely treated with 10 mM NaCl, and then the changes in the cellular fluorescent intensity were digitally recorded over a period of 300 sec. […] The fluorescence intensities from each individual cell were traced at a resolution of a second. The traces of the intracellular fluorescence intensities from individual cells were averaged using ImageJ program (version 1.50i, NIH), and the average traces are provided in FIGS. 33A and 33B for the cells with “L5/L6 ligation” and without “L5/L6 ligation”, respectively. […]

[2] = tested on: sodium current in PC3 cells; assay: CoroNa assay of sodium current in PC3 cells; assay type: cell-based, human; details: 30 hours
Procedure: Cellular sodium current is measured by patch clamp. As sodium ions enter cell, the intra-cellular sodium ion level increases. The intra-cellular sodium level can be probed using a sodium ion sensitive dye. “CoroNa Green” is a dye with a sodium ion chelator of crown ether type. Upon chelation with a sodium ion, “CoroNa Green” emits green fluorescence. “CoroNa Green” has been used to indirectly measure the intra-cellular sodium level. […] [Proc. Natl. Acad. Sci. USA vol 106(38), 16145-16150 (2009)]
PC3 cells are known to abundantly express the human SCN9A mRNA, although there are other SCN subtypes concomitantly expressed. [Br J. Pharmacol. vol 156, 420-431 (2009)] Thus an inhibition of SCN9A mRNA expression may lead to a considerable reduction of the sodium current in PC3 cells, if the sodium ion current by the Nav1.7 sodium channel subtype occupies a marked portion of the total sodium ion current in PC3 cells. It is note that the SCN9A mRNA encodes the Nav1.7 sodium channel subtype.
“SCN-ASO 7” was evaluated for its ability to inhibit the sodium ion current in PC3 cells using “CoroNa Green” as follows.
[ASO Treatment] PC3 cells grown in 35 mm culture dish containing 2 mL F-12K medium were treated with “SCN-ASO 7” at 0 zM (negative control), 100 zM or 1 aM.
[CoroNa Assay] 30 hours later, the cells were washed with 2 mL HBSS (Hank's Balanced Salt Solution, Cat. Number 14025-092, Life Technologies), and then charged with 2 mL fresh HBSS. Then the cells were treated with 5 μM “CoroNa Green” (Cat. Number C36676, Life Technologies) at 37° C. 30 min later, the cells were washed 2× with 2 mL HBSS, and charged with 2 mL fresh HBSS. The culture dish was mounted on an Olympus fluorescence microscope equipped with a digital video camera to continuously capture the green fluorescence images of the cells. The cells were acutely treated with 100 mM NaCl, and then the changes in fluorescence cellular images were digitally recorded over a period of 3 min. There were about 4 cells per frame on average. The fluorescence intensities from each individual cell were traced at the resolution of a second. The traces of the intracellular fluorescence intensities from individual cells were overlaid and averaged at each time point. The average of the traces from the individual cells of each ASO concentration were plotted as provided in FIG. 30A using ImageJ program (version 1.50i, NIH). The average fluorescence intensity trace was taken as the individual intra-cellular sodium concentration trace for the cells treated with “SCN-ASO 7” at 0 (negative control), 100 or 1,000 zM.
“SCN-ASO 3” was evaluated for its ability to inhibit the sodium current in PC3 cells using “CoroNa Green” according to the protocol described in “SCN9A Example 5”, unless noted otherwise.
“SCN-ASO 8” was evaluated for its ability to inhibit the sodium current in PC3 cells using “CoroNa Green” according to the protocol described in “SCN9A Example 3”, unless noted otherwise.

Substance | decrease in fluorescence intensity (CoroNa) ([1]; 1 aM) | decrease in fluorescence intensity (CoroNa) ([1]; 100 zM) | decrease of sodium current (CoroNa) ([2]; PC3 cells, 100 zM) | decrease of sodium current / sodium channel activity (CoroNa) ([2]; PC3 cells, 1,000 zM) | average cellular fluorescence intensity (CoroNa Green) ([2]; PC3 cells, 1,000 zM, at 100 sec after 100 mM NaCl)
Fethoc-AA(5)G-TG(5)T-A(5)CC(1O2)-TA(5)A-A(5)C-NH2 (AAGTGTACCTAAAC; splice-switching; all peptide nucleic acid (PNA), [A(5)] at 2, 7, 11, 13, [G(5)] at 5, [C(1O2)] at 9, 5' {Fethoc}, 3' {NH2}; peptide nucleic acid written N to C) [SCN-ASO 27] | ~50% | no decrease | – | – | –
Fethoc-AC(1O2)T-TA(5)C-G(6)CA-A(5)AA(5)-AC(1O2)A-A(5)-NH2 (ACTTACGCAAAAACAA; all peptide nucleic acid (PNA), [C(1O2)] at 2, 14, [A(5)] at 5, 10, 12, 16, [G(6)] at 7, 5' {Fethoc}, 3' {NH2}; peptide nucleic acid written N to C) [SCN-ASO 7] | – | – | no notable decrease | 37% | 51.47 arbitrary unit
